In patent US10137112B2, “Methods for treating hyperuricemia in patients with gout using halofenate or halofenic acid and a second urate-lowering agent” (CymaBay Therapeutics, Inc., priority 2011, dated 2018):
Values joined by “and” are separate entries in the source; they are usually repeats but may differ in a detail not shown here. Equal values may be shown once.

Key:
serum uric acid (sUA) [1] = tested on: serum uric acid (sUA)
Experimental: A randomized, double-blind, placebo-controlled study to evaluate the safety and efficacy of daily oral doses of between 400 to 600 mg of arhalofenate (i.e., (−)-halofenate) in combination with 300 mg oral doses of allopurinol was conducted in gout patients with inadequate hypouricemic (uric acid lowering) response to allopurinol alone.
Patients who met the final eligibility criteria were randomized to each of 3 study arms in the following manner (1:1:1):
Arhalofenate 400 mg (plus allopurinol 300 mg)
Arhalofenate 600 mg (plus allopurinol 300 mg)
Placebo (plus allopurinol 300 mg)
The serum uric acid (sUA) levels were assessed at Day 1, prior to giving blinded study medication, and at Visits Week 2, 3, and 4.
Patients in all treatment groups also took allopurinol 300 mg once daily orally starting at Week −3 during the run-in and continuing through Week 4.
The randomized treatment regimens were as follows (Day 1 through Week 4):
Treatment Group #1: Arhalofenate 400 mg (plus allopurinol)
Treatment Group #2: Arhalofenate 600 mg (plus allopurinol)
Treatment Group #3: Placebo (plus allopurinol)
The effects of each of the three treatment groups were assessed as the change in sUA from baseline to the end of the treatment period for the following endpoints:
Percent change in sUA from baseline at Week 4 of treatment
The proportion of patients achieving a sUA<6 mg/dL at week 4 of treatment
The proportion of patients achieving a sUA<5 mg/dL at week 4 of treatment
The proportion of patients achieving a sUA<4 mg/dL at week 4 of treatment

serum uric acid = details: monotherapy at 40, 80, 120, 160 and 240 mg/day; cited from earlier work
serum uric acid (sUA) [2] = assay: Example 2 clinical trial: arhalofenate 400 mg increasing to 600 mg in combination with febuxostat 80 mg in gout patients with hyperuricemia, serum uric acid; type: in vivo, human; details: Day 8, after 1 week febuxostat 80 mg daily
Experimental: This study evaluated the efficacy, safety and tolerability of arhalofenate at 400 mg increasing to 600 mg daily orally in combination with febuxostat 80 mg daily orally in gout patients (per criteria of the American Rheumatism Association) with hyperuricemia.
In addition to colchicine 0.6 mg daily for flare prophylaxis, all patients received febuxostat and arhalofenate in the following order during the Treatment Phase: • Days 1 through 7: febuxostat 80 mg orally once daily (febuxostat only period) • Days 8 through 21: febuxostat 80 mg plus arhalofenate 400 mg orally once daily (febuxostat plus arhalofenate 400 mg period) • Days 22 through 35: febuxostat 80 mg plus arhalofenate 600 mg orally once daily (febuxostat plus arhalofenate 600 mg period)
The sUA levels were assessed before the start of each dosing period (Day 1, Day 8, Day 22) and at the end of the Treatment Phase (Day 36). Serum urate levels were also measured on the last day of each dosing period (Day 7, Day 21, and Day 35) at 4 different time points; pre-dose (fasting), 2 hours post-dose, 6 hours post-dose, and 10 hours post-dose.
Dose/Route/Regimen • Colchicine: 0.6 mg/oral/daily from Day −16 through Day 49 • Febuxostat: 80 mg/oral/daily from Day 1 through Day 35 • Arhalofenate: 400 mg/oral daily from Day 8 through Day 21; 600 mg/oral/daily from Day 22 through Day 35
Duration of Treatment • Phase 1: Screening Phase: 1 to 4 weeks • Phase 2: Run-in/Stabilization Phase: ≥2 weeks • Phase 3: Treatment Phase: 5 weeks • Phase 4: Follow-up Phase: 2 weeks

[3] = placebo + allopurinol 300 mg once daily oral, Week 4 (LOCF), N = 31
[4] = placebo + allopurinol 300 mg once daily oral, Week 4, N = 31
[5] = placebo + allopurinol 300 mg, Week 4

O=c1[nH]cnc2[nH]ncc12 [Placebo + Allopurinol, 1,5-dihydro-4H-pyrazolo [3,4-d]pyrimidin-4-one]
% Change from Baseline in Uric Acid, Mean (serum uric acid (sUA) [1]; [3]): −9.5%
% Change from Baseline in Uric Acid, Median (serum uric acid (sUA) [1]; [3]): −8.7%
Uric Acid at End of Treatment (LOCF), Mean (serum uric acid (sUA) [1]; [4]): 6.3 mg/dL
Uric Acid at End of Treatment (LOCF), Median (serum uric acid (sUA) [1]; [4]): 6.2 mg/dL
patients with sUA<4.0 mg/dL by End of Treatment (serum uric acid (sUA) [1]; [5]): 1 patients
patients with sUA<5.0 mg/dL by End of Treatment (serum uric acid (sUA) [1]; [5]): 4 patients
patients with sUA<6.0 mg/dL by End of Treatment (serum uric acid (sUA) [1]; [5]): 11 patients

O=c1[nH]cnc2c(CN3C[C@H](CO)[C@@H](O)C3)c[nH]c12 [Ulodesine, 7-(((3R,4R)-3-hydroxy-4-(hydroxymethyl)pyrrolidin-1-yl)methyl)-3H-pyrrolo[3,2-d]pyrimidin-4(5H)-one]
effect on serum uric acid in gout patients (serum uric acid): rapidly and significantly reduced serum uric acid

Cc1nc(-c2ccc(OCC(C)C)c(C#N)c2)sc1C(=O)O [febuxostat, 2-(3-cyano-4-isobutoxyphenyl)-4-methyl-1,3-thiazole-5-carboxylic acid]
mean absolute reduction in sUA from Day 1 (serum uric acid (sUA) [2]): -4.3 mg/dL
mean percent reduction in sUA from Day 1 (serum uric acid (sUA) [2]): −47.8%
Patients reached target: No, sUA < 3.0 mg/dL (serum uric acid (sUA) [2]; 11 patients): 11 patients
Patients reached target: No, sUA < 4.0 mg/dL (serum uric acid (sUA) [2]; 11 patients): 10 patients
Patients reached target: No, sUA < 5.0 mg/dL (serum uric acid (sUA) [2]; 11 patients): 5 patients
Patients reached target: No, sUA < 6.0 mg/dL (serum uric acid (sUA) [2]; 11 patients): 0 patients
Patients reached target: Yes, sUA < 3.0 mg/dL (serum uric acid (sUA) [2]; 11 patients): 0 patients
Patients reached target: Yes, sUA < 4.0 mg/dL (serum uric acid (sUA) [2]; 11 patients): 1 patients
Patients reached target: Yes, sUA < 5.0 mg/dL (serum uric acid (sUA) [2]; 11 patients): 6 patients
Patients reached target: Yes, sUA < 6.0 mg/dL (serum uric acid (sUA) [2]; 11 patients): 11 patients
Proportion of patients reached target, sUA < 3.0 mg/dL (serum uric acid (sUA) [2]; 11 patients): 0.00%
Proportion of patients reached target, sUA < 4.0 mg/dL (serum uric acid (sUA) [2]; 11 patients): 9% and 9.09%
Proportion of patients reached target, sUA < 5.0 mg/dL (serum uric acid (sUA) [2]; 11 patients): 55% and 54.55%
Proportion of patients reached target, sUA < 6.0 mg/dL (serum uric acid (sUA) [2]; 11 patients): 100%
